Measured values taken from patent US8173609B2, “Macrolides useful against inflammatory and allergic diseases” (Basilea Pharmaceutica AG, priority 2006, dated 2012).

test system: human PDE4; test: PDE4 inhibition, in vitro enzymatic IMAP FP assay; assay type: biochemical; settings: PDE4 partially purified from human monocytic U-937 cells; fluorescence polarization
Description: PDE4 specifically hydrolyzes cAMP and releases the product AMP. The potency of PDE inhibition by said agents was determined in an in vitro enzymatic assay. The assay is commercially available (IMAP™ FP assay Molecular Devices Corp.) and was optimized for the use of human PDE4. Fluorescently labeled cAMP was hydrolyzed by PDE4 and in a second step, binding of labeled product to a large binding partner allowed product detection by fluorescence polarization (FP) measurements.
PDE4 was partially purified from undifferentiated human monocytic cells (U-937) according to Thorpy et al. 1992 (J. Pharmacol. Exp. Ther. 263: 1195). […] In addition, PDE4 preparations were validated by inhibition studies with PDE4-specific and unspecific PDE inhibitors.
Stock solutions of test compounds were made in DMSO and diluted in assay buffer (10 mM Tris-HCl, 10 mM MgCl2, 0.1% BSA 0.05% NaN3, pH 7.2) to the desired concentrations. The solutions used in the assay contained test compound in assay buffer with 2% DMSO.
10 μl of substrate (at a concentration recommended by the manufacturer) were mixed with 5 μl of appropriately diluted PDE and 5 μl of test compound solution. 5 μl of reaction buffer with 2% DMSO were used for control reactions. […] After incubation for 90 minutes at room temperature, 60 μl of binding reagent were added as specified by the manufacturer. Binding was allowed to proceed for 30 minutes and fluorescence polarization was measured. Dose dependence of PDE inhibition was measured by assaying dilution series of test compounds in duplicates. IC50 values were determined from the measured activities by curve fitting.

| Compound | IC50 [µM] |
| --- | --- |
| CCC1OC(=O)C(C)C(OC2CC(C)(OC)C(O)C(C)O2)C(C)C(OC2OC(C)CC(N(C)C)C2O)C(C)(OC)CC(C)C(=O)C(C)C2C(SCCCc3c(C(=O)Nc4ccncc4)ccc(OC)c3OC)C(=O)OC12C (stereo not shown) [Example 7, Compound of Formula I where R1 is [3-[2,3-dimethoxy-6-(pyridin-4-yl-amino-carbonyl)phenyl]-propyl]thio, R2 and R3 taken together form a C═O Group and R4 is Methyl] | 7.6 |
| compound of formula I where R1 is [2-[(5-(3,5-dichloro-pyridin-4-yl-amino-carbonyl)-1-ethyl-1H-pyrazolo[3,4-b]pyridin-4-ylamino]-ethyl]thio, R2 and R3 taken together form a C═O Group and R4 is Methyl [Example 6] | 0.37 |
| CCC1OC(=O)C(C)C(OC2CC(C)(OC)C(O)C(C)O2)C(C)C(OC2OC(C)CC(N(C)C)C2O)C(C)(OC)CC(C)C(=O)C(C)C2C(SCCN(Cc3cccnc3)c3ccc(OC)c(OC4CCCC4)c3)C(=O)OC12C (stereo not shown) [Example 5, Compound of Formula I where R1 is [2-[(3-cyclopentyloxy-4-methoxy-phenyl)-(pyridin-3-ylmethyl)-amino]-ethyl]thio, R2 and R3 taken together form a C═O Group and R4 is Methyl] | 0.85 |
| CC[C@H]1OC(=O)[C@H](C)[C@@H](O[C@H]2C[C@@](C)(OC)[C@@H](O)[C@H](C)O2)[C@H](C)[C@@H](O[C@@H]2O[C@H](C)C[C@H](N(C)C)[C@H]2O)[C@](C)(OC)C[C@@H](C)C(=O)[C@H](C)[C@H]2[C@H](SCCn3cnc4c(N)ncc(C(=O)Nc5c(Cl)cncc5Cl)c43)C(=O)O[C@@]21C [Example 11, compound of formula I where R1 is [2-[4-amino-7-(3,5-dichloro-pyridin-4-yl-amino-carbonyl)-imidazo[4,5-c]pyridin-1-yl]-ethyl]thio, R2 and R3 taken together form a C═O Group and R4 is Methyl] | 0.008 |
| CSCCn1cnc2c(N)ncc(C(=O)Nc3c(Cl)cncc3Cl)c21 [reference compound] | 3.6 |
| CCC1OC(=O)C(C)C(OC2CC(C)(OC)C(O)C(C)O2)C(C)C(OC2OC(C)CC(N(C)C)C2O)C(C)(OC)CC(C)C(=O)C(C)C2C(SCCn3c(CCc4cccnc4)nc4c(N)ncnc43)C(=O)OC12C (stereo not shown) [Example 1, compound of formula I where R1 is [2-[6-Amino-8-(2-pyridin-3-yl-ethyl)-purin-9-yl]ethyl]thio, R2 and R3 taken together form a C═O group and R4 is methyl] | 13.4 |
| CCC1OC(=O)C(C)C(OC2CC(C)(OC)C(O)C(C)O2)C(C)C(OC2OC(C)CC(N(C)C)C2O)C(C)(OC)CC(C)C(=O)C(C)C2C(SCCCn3cnc4c(N)ncc(C(=O)NCC(=O)OC)c43)C(=O)OC12C (stereo not shown) [Example 9, compound of formula I where R1 is [3-[4-amino-7-([methoxycarbonylmethyl]-amino-carbonyl)-imidazo[4,5-c]pyridin-1-yl]-propyl]thio, R2 and R3 taken together form a C═O Group and R4 is Methyl] | 24.2 |
| CC[C@H]1OC(=O)[C@H](C)[C@@H](O[C@H]2C[C@@](C)(OC)[C@@H](O)[C@H](C)O2)[C@H](C)[C@@H](O[C@@H]2O[C@H](C)C[C@H](N(C)C)[C@H]2O)[C@](C)(OC)C[C@@H](C)C(=O)[C@H](C)[C@H]2[C@H](SCCn3cnc4c(N)nc(NCc5cccnc5)nc43)C(=O)O[C@@]21C [Example 12, Compound of Formula I where R1 is [2-[6-amino-2-[[(3-pyridyl)methyl]amino]-purin-9-yl]ethyl]thio, R2 and R3 taken together form a C═O Group and R4 is Methyl] | 3.8 |

Other lines, results leading:

| IC50 [µM] | Compound |
| --- | --- |
| 4.7 | compound of formula I where R1 is [3-[4-Amino-7-(pyridin-4-yl-amino-carbonyl)-imidazo[4,5-c]pyridin-1-yl]-propyl]thio, R2 and R3 taken together form a C═O Group and R4 is Methyl [Example 8] |
| 3.9 | CCC1OC(=O)C(C)C(OC2CC(C)(OC)C(O)C(C)O2)C(C)C(OC2OC(C)CC(N(C)C)C2O)C(C)(OC)CC(C)C(=O)C(C)C2C(SCCn3c(Nc4cccnc4)nc4c(N)ncnc43)C(=O)OC12C (stereo not shown) [Example 2, compound of formula I where R1 is [2-[6-Amino-8-(pyridin-3-ylamino)-purin-9-yl]ethyl]thio, R2 and R3 taken together form a C═O Group and R4 is Methyl] |
| 3.4 | CCC1OC(=O)C(C)C(OC2CC(C)(OC)C(O)C(C)O2)C(C)C(OC2OC(C)CC(N(C)C)C2O)C(C)(OC)CC(C)C(=O)C(C)C2C(SCCN(C(=O)c3ccncc3)c3ccc(OC)c(OC4CCCC4)c3)C(=O)OC12C (stereo not shown) [Example 3, Compound of Formula I where R1 is [2-[(3cyclopentyloxy-4-methoxy-phenyl)-(pyridin-4-yl-carbonyl)-amino]ethyl]thio, R2 and R3 taken together form a C═O Group and R4 is Methyl] |
| 2.6 | CC[C@H]1OC(=O)[C@H](C)[C@@H](O[C@H]2C[C@@](C)(OC)[C@@H](O)[C@H](C)O2)[C@H](C)[C@@H](O[C@@H]2O[C@H](C)C[C@H](N(C)C)[C@H]2O)[C@](C)(OC)C[C@@H](C)C(=O)[C@H](C)[C@H]2[C@H](SCCn3cnc4c(N)nc(NCc5ccncc5)nc43)C(=O)O[C@@]21C [Example 13, Compound of Formula I where R1 is [2-[6-amino-2-[[(4-pyridyl)methyl]amino]-purin-9-yl]ethyl]thio, R2 and R3 taken together form a C═O Group and R4 is Methyl] |
| 1 | CC[C@H]1OC(=O)[C@H](C)[C@@H](O[C@H]2C[C@@](C)(OC)[C@@H](O)[C@H](C)O2)[C@H](C)[C@@H](O[C@@H]2O[C@H](C)C[C@H](N(C)C)[C@H]2O)[C@](C)(OC)C[C@@H](C)C(=O)[C@H](C)[C@H]2[C@H](SCCn3cnc4c(N)ncc(C(=O)Nc5ccncc5)c43)C(=O)O[C@@]21C [Example 10, Compound of Formula I where R1 is [2-[4-amino-7-(pyridin-4-yl-amino-carbonyl)-imidazo[4,5-c]pyridin-1-yl]-ethyl]thio, R2 and R3 taken together form a C═O Group and R4 is Methyl] |
| 0.28 | CCC1OC(=O)C(C)C(OC2CC(C)(OC)C(O)C(C)O2)C(C)C(OC2OC(C)CC(N(C)C)C2O)C(C)(OC)CC(C)C(=O)C(C)C2C(SCCN(Cc3ccncc3)c3ccc(OC)c(OC4CCCC4)c3)C(=O)OC12C (stereo not shown) [Example 4, compound of formula I where R1 is [2-[(3-cyclopentyloxy-4-methoxy-phenyl)-(pyridin-4-ylmethyl)-amino]-ethyl]thio, R2 and R3 taken together form a C═O Group and R4 is Methyl] |

same assay, conditions: ratio of Example 11 IC50 to IC50 of free substituent drawing 48

| Compound | IC50(PDE4) relative to the IC50(PDE4) for the macrolide substituent in free form |
| --- | --- |
| CC[C@H]1OC(=O)[C@H](C)[C@@H](O[C@H]2C[C@@](C)(OC)[C@@H](O)[C@H](C)O2)[C@H](C)[C@@H](O[C@@H]2O[C@H](C)C[C@H](N(C)C)[C@H]2O)[C@](C)(OC)C[C@@H](C)C(=O)[C@H](C)[C@H]2[C@H](SCCn3cnc4c(N)ncc(C(=O)Nc5c(Cl)cncc5Cl)c43)C(=O)O[C@@]21C [Example 11, compound of formula I where R1 is [2-[4-amino-7-(3,5-dichloro-pyridin-4-yl-amino-carbonyl)-imidazo[4,5-c]pyridin-1-yl]-ethyl]thio, R2 and R3 taken together form a C═O Group and R4 is Methyl] | about one five hundredth |

same assay, conditions: up to a concentration of 50 μM in the assay used in the examples

| Compound | PDE4-inhibiting activity |
| --- | --- |
| CC[C@H]1OC(=O)[C@H](C)[C@@H](O[C@H]2C[C@@](C)(OC)[C@@H](O)[C@H](C)O2)[C@H](C)[C@@H](O[C@@H]2O[C@H](C)C[C@H](N(C)C)[C@H]2O)[C@](C)(OC)C[C@@H](C)C(=O)[C@H](C)[C@H]2[C@H](SC)C(=O)O[C@@]21C [reference compound] | does not show any PDE4-inhibiting activity |
